The target of one experiment is D(3) dopamine receptor (Rattus norvegicus, UniProt P19020). The experiment can be described thus: biochemical.
In a further experiment the target is D(2) dopamine receptor (Rattus norvegicus, UniProt P61169). Put plainly: Agonist activity at Rattus norvegicus (rat) dopamine D2 receptor transfected in african green monkey COS7 cells assessed as inhibition of forskolin-stimulated adenylyl cyclase activity after 10 min. Format: functional, cell-based, COS-7.
Experiment [1] has as its target Dopamine receptor D2 and D3 (Rattus norvegicus, UniProt P19020+P61169). Put plainly: Agonist activity at Rattus norvegicus (rat) dopamine D2/D3 receptor transfected in african green monkey COS7 cells assessed as inhibition of forskolin-stimulated adenylyl cyclase activity after 10 min. Format: functional, cell-based. To be noted: cos-7.

Chain of D(3) dopamine receptor (P19020 whole entry): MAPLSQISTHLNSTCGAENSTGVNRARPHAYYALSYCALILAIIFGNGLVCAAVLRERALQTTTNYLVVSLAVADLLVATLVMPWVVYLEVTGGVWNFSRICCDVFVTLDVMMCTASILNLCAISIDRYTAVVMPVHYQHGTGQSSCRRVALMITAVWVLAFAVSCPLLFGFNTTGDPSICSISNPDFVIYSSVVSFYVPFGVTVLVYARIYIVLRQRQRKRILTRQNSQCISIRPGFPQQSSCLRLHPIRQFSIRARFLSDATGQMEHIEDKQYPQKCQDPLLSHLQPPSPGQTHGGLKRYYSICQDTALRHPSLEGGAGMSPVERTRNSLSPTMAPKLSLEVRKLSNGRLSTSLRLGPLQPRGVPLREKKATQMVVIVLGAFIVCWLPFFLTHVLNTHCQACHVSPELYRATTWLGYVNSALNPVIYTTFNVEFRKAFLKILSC
Chain of D(2) dopamine receptor (P61169 whole entry): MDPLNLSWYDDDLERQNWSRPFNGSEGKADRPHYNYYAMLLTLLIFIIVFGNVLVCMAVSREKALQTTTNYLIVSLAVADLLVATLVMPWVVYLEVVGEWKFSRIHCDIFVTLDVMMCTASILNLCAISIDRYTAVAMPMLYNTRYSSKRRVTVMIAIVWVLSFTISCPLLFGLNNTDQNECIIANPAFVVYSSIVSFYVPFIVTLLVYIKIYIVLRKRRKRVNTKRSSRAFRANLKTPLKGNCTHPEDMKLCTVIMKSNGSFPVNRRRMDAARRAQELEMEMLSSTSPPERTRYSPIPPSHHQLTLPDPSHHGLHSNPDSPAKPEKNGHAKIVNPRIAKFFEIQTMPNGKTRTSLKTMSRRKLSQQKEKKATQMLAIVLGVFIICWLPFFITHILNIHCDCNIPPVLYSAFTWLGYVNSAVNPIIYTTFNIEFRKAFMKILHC

The Ki is a dissociation constant, usually derived from enzyme kinetics or from competition with a known ligand. As for `N#Cc1ccc2c(c1)[C@H]1CN(CCCCNC(=O)c3ccc(-c4ccccc4)cc3)C[C@@H]1CO2`, the affinity at D(3) dopamine receptor, expressed as Ki, was 2.42 nM. Broadly, the EC50 is the concentration at which the effect is half-maximal. As a reminder, the IC50 is the concentration needed to halve the response being measured. As for `CCCN1CCO[C@@H]2c3cc(C(N)=O)ccc3CC[C@H]21` (relative stereo), the figures for the EC50 (on D(2) dopamine receptor; in experiment [1]) were 49.5 nM and 1.5 nM, respectively. On D(3) dopamine receptor, this compound had an IC50 of 4.13 nM.

`CCCN[C@H]1CCc2nc(N)sc2C1` [PRAMIPEXOLE]: at D(3) dopamine receptor, the IC50 is 7.8 nM. In the case of `CCCN(CCC)CCc1cccc2c1CC(=O)N2` [ROPINIROLE], at D(2) dopamine receptor, the EC50 was determined as 75.5 nM.

Source of the values: ChEMBL document CHEMBL3046632 (Med Chem Res, 2004).
